# Bridge positions count the residues as written; N and C are the ends. Square brackets hold non-standard residues; d marks the D form. Peptide text beside a SMILES is read from it. I, II: the chains in the order shown. * marks the point of attachment. Quinaldoyl(3-OH) = O=C(c1nc2ccccc2cc1O)*; NMeC = CN[C@@H](CS)C(=O)O
# Assays:
# [1] = tested on: DNA topoisomerase II; settings: cited from earlier work
# [2] = tested on: w794 DNA; test: DNase I and MTE footprinting; assay type: binding
# Method: FIG. 9 is an electrophoresis gel of DNase footprinting of echinomycin bound to w794 DNA. Lane 13, G, C and A Sanger sequencing reactions; lane 4, native DNA; lane 5, control DNA without treatment of DNase I; lanes 6-14; 0, 10, 20, 40, 60, 80, 100, 120, and […] echinomycin with DNase I treatment (1 min).
# FIG. 10 is an electrophoresis gel of DNase footprinting of thiocoraline bound to w794 DNA. Lane 1, native DNA; lane 2, control DNA without treatment of DNase I; lanes 3-6, G, C, A, and T Sanger sequencing reactions; lanes 7-26; 0, 10, 25, 50, 75, 100, 150, 200, 250, 300, 350, 400, 450, 500, 600, 700, 800, 900, 1000, and […] thiocoraline with DNase I treatment (1 min).
# [3] = tested on: L1210 cell line; test: cytotoxic activity in the L1210 assays; settings: read-out: IC50 cytotoxic activity; L1210 cell line
# [4] = target: T1, DNA topoisomerase I (Homo sapiens, UniProt P11387); settings: cited from earlier work
# T1 sequence (P11387 1-765): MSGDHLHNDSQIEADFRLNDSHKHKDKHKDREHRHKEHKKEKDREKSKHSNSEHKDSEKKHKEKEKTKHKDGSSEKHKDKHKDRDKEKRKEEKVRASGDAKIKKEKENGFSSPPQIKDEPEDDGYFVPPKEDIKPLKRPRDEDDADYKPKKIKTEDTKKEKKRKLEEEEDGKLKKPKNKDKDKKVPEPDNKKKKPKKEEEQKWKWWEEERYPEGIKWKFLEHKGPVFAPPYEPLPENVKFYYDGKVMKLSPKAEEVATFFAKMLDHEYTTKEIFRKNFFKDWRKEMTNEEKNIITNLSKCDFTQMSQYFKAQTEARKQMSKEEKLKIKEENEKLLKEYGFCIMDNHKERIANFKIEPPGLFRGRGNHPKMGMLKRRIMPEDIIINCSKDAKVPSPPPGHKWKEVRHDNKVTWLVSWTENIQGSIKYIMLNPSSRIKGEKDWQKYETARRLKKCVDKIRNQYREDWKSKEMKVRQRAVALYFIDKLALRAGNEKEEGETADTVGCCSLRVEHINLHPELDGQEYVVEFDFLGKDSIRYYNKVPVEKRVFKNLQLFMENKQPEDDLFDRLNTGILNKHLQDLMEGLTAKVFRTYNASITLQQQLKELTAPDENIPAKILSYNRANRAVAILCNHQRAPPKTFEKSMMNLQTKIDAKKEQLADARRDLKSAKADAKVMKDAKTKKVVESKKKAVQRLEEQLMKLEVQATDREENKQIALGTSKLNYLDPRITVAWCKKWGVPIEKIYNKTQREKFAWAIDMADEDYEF
# [5] = tested on: supercoiled ΦX174 DNA; test: DNA cleavage assay, conversion of Form I to Form II or Form III; assay type: biochemical
# Description: Also examined was the ability of 1 or 2 to cleave, alkylate, or cross-link DNA. In particular, the electrophilic unsaturation found in BE-22179 might be expected to serve as an alkylation site for covalent attachment to DNA, especially following bisintercalation binding. […] These studies would detect both thermally labile and non thermally labile alkylation sites, but only those engaged in interstrand cross-linking. Given the C2 symmetric nature of 2, bisintercalation analogous to echinomycin and triostin A places the two electrophilic sites in positions to react only with the complementary strands of duplex DNA (interstrand DNA cross-linking) and would preclude intrastrand DNA cross-linking.
# [6] = tested on: duplex deoxyoligonucleotides, 5′-GCXXGC-3′ where XX=TA, AT, GC, CG; test: fluorescence quenching titration with duplex deoxyoligonucleotides; settings: high-affinity binding, listed as 1
# Description: Consequently, the binding of 1 was examined with a set of four duplex deoxyoligonucleotides, 5′-GCXXGC-3′ where XX=TA, AT, GC, CG, incorporating the high affinity intercalation sites of the related bisintercalatiors echinomycin (5′-PuCGPy) (Corbaz, R., et al., Helv. Chim. Acta 1957, 40, 199; Keller-Schierlein, W., et al., Helv. Chim. Acta 1957, 40, 205; Keller-Schierlein, W., et al., Helv. Chim. Acta 1959, 42, 305; Martin, D. G., et al., J. Antibiot. 1975, 28, 332; Dell, A., et al., J. Am. Chem. Soc. 1975, 97, 2497), sandramycin (5′-CATG) (Boger, D. L., et al., Bioorg. Med. Chem. 1999, 7, 315; Boger, D. L., et al., Bioorg. Med. Chem. 1998, 6, 85), and the luzopeptins (5′-CATG) (Isolation: Konishi, M., et al., J. Antibiot. 1981, 34, 148; Structure and stereochemistry: Arnold, E., et al., J. Am. Chem. Soc. 1981, 103, 1243. Total synthesis (luzopeptins A-C): Boger, D. L., et al., J. Am. Chem. Soc. 1999, 121, 1098; Boger, D. L., et al., J. Am. Chem. Soc. […] The excitation and emission spectra for thiocoraline and BE-22179 were recorded in aqueous buffer (Tris-HCl, pH 7.4, 75 mM NaCl). To minimize fluorescence decrease due to dissolution or photobleaching, the solutions were stirred in 4-mL cuvettes in the dark with the minimum exposure to the excitation beam necessary to obtain a reading. […]
compound,measurement,setting,value
"CSC[C@H]1C(=O)SC[C@@H](NC(=O)c2nc3ccccc3cc2O)C(=O)NCC(=O)N(C)[C@H]2CSSC[C@@H](C(=O)N1C)N(C)C(=O)CNC(=O)[C@H](NC(=O)c1nc3ccccc3cc1O)CSC(=O)[C@H](CSC)N(C)C2=O [Thiocoraline] (I: {Quinaldoyl(3-OH)}-[dC]G[NMeC][NMeC](Me) / II: {Quinaldoyl(3-OH)}-[dC]G[NMeC][NMeC](Me); thioester I:1-II:C, I:C-II:1; disulfide I:3-II:3)",inhibition of DNA topoisomerase II,[1],does not inhibit
same,selectivity of DNA binding by footprinting,[2],failed to reveal a distinguishable selectivity
same,IC50,[3],0.2 nM
same,inhibition of DNA topoisomerase I,[4],does not inhibit
same,DNA cleavage,[5],No evidence
same,binding constants for the four deoxyoligonucleotides,[6],3-7×10^6 M^−1
